Source: the CheMixHub viscosity set
Several values for one entry are separate records, joined by “and”; a condition that tells them apart may be missing. Identical values can stand only once.

Assay: xn = mol fraction of the nth substance listed

CCCCCC(=O)[O-].C[NH2+]c1ccccc1 + CN(C)C=O
viscosity [mPa·s], 101 kPa
Conditions	x1 = 0.004889	x1 = 0.008423	x1 = 0.01411	x1 = 0.01792	x1 = 0.02131	x1 = 0.02717	x1 = 0.0305	x1 = 0.03458
293.15 K	0.957	0.969	0.992	1.009	1.026	1.052	1.072	1.099
298.15 K	0.916	0.926	0.946	0.961	0.975	0.998	1.016	1.038
303.15 K	0.879	0.887	0.905	0.918	0.93	0.95	0.966	0.985
308.15 K	0.846	0.854	0.869	0.881	0.891	0.909	0.923	0.94
313.15 K	0.817	0.824	0.837	0.847	0.857	0.873	0.884	0.899
318.15 K	0.791	0.797	0.809	0.818	0.826	0.84	0.85	0.863
323.15 K	0.767	0.772	0.784	0.791	0.798	0.812	0.82	0.831

FB(F)F + CCOc1ccccc1
viscosity [mPa·s], 101 kPa
Conditions	293.15 K	298.15 K	303.15 K
x1 = 0.00901	1.29	1.18	1.08
x1 = 0.1455	1.53	1.39	1.27
x1 = 0.2874	2.42	2.17	1.96
x1 = 0.3269	2.79	2.51	2.25
x1 = 0.3742	3.38	3.01	2.68
x1 = 0.3817	3.48	3.1	2.74
x1 = 0.4143	4	3.52	3.08
x1 = 0.4429	4.57	3.97	3.5
x1 = 0.456	4.87	4.24	3.7
x1 = 0.4744	5.39	4.69	4.06
x1 = 0.4962	6.02	5.19	4.48

C1=C[C@H]2[C@@H](C1)[C@H]1C=C[C@@H]2C1 + CC(C)O
viscosity [mPa·s], 101.2 kPa
Conditions	x1 = 0.1015	x1 = 0.1993	x1 = 0.2999	x1 = 0.4006	x1 = 0.4998	x1 = 0.5999	x1 = 0.6977	x1 = 0.7999	x1 = 0.8995
293.15 K	2.227	2.228	2.271	2.356	2.481	2.69	2.944	3.291	3.718
303.15 K	1.69	1.7	1.737	1.811	1.918	2.09	2.314	2.581	2.919
313.15 K	1.303	1.322	1.363	1.435	1.535	1.689	1.869	2.109	2.394

C1COCCO1 + Cc1ccccc1
101 kPa
Conditions	viscosity
293.15 K, x1 = 0.6506	1.045 mPa·s
303.15 K, x1 = 0.0992	0.556 mPa·s
303.15 K, x1 = 0.1216	0.5749 mPa·s
303.15 K, x1 = 0.122	0.573 mPa·s
303.15 K, x1 = 0.1993	0.591 mPa·s
303.15 K, x1 = 0.2367	0.6251 mPa·s
303.15 K, x1 = 0.237	0.622 mPa·s
303.15 K, x1 = 0.2925	0.628 mPa·s
303.15 K, x1 = 0.347	0.675 mPa·s
303.15 K, x1 = 0.3999	0.676 mPa·s
303.15 K, x1 = 0.453	0.7299 mPa·s and 0.729 mPa·s
303.15 K, x1 = 0.4961	0.723 mPa·s
303.15 K, x1 = 0.554	0.779 mPa·s
303.15 K, x1 = 0.5541	0.781 mPa·s
303.15 K, x1 = 0.5981	0.778 mPa·s
303.15 K, x1 = 0.65	0.831 mPa·s
303.15 K, x1 = 0.6504	0.8368 mPa·s
303.15 K, x1 = 0.6985	0.843 mPa·s
303.15 K, x1 = 0.7438	0.8912 mPa·s
303.15 K, x1 = 0.744	0.882 mPa·s
303.15 K, x1 = 0.8009	0.918 mPa·s
303.15 K, x1 = 0.8327	0.9416 mPa·s
303.15 K, x1 = 0.833	0.939 mPa·s
303.15 K, x1 = 0.8967	0.998 mPa·s
303.15 K, x1 = 0.918	0.9965 mPa·s and 0.995 mPa·s
308.15 K, x1 = 0.1	0.533 mPa·s
308.15 K, x1 = 0.3	0.593 mPa·s
308.15 K, x1 = 0.4	0.629 mPa·s
308.15 K, x1 = 0.5	0.669 mPa·s
308.15 K, x1 = 0.6	0.709 mPa·s
308.15 K, x1 = 0.7	0.764 mPa·s
308.15 K, x1 = 0.9	0.893 mPa·s

O=C1CCCCO1 + CNC(C)=O
viscosity [mPa·s], 101 kPa
Conditions	x2 = 0.0818	x2 = 0.2377	x2 = 0.3396	x2 = 0.4641	x2 = 0.5194	x2 = 0.717	x2 = 0.7962	x2 = 0.8929	x2 = 0.9596
303.15 K	2.648	2.494	2.393	2.352	2.389	2.607	2.782	3.108	3.512
308.15 K	2.412	2.288	2.199	2.203	2.222	2.422	2.583	2.896	3.125
313.15 K	2.204	2.101	2.06	2.021	2.023	2.165	2.304	2.559	2.765
318.15 K	2.02	1.916	1.862	1.843	1.862	1.994	2.111	2.3	2.491
